Measured values published in the supplement of paper PMC10307832.

Tests used:
Test in all cases: relative viability (nuclei count vs DMSO), 5 days (fraction); higher = more cells survive
[1] = tested on: BEN
Summary of the method: (§1)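 A single step with final 0.05% Triton X-100, 1% formaldehyde and 1 ug/ml Hoechst fixed the cells and stained nuclei 5 days after treatment. Lung cancer cell lines in 1536-well plates had been treated by pin tool the day after seeding with one drug alone or a fixed anchor-drug dose plus five library-drug doses (not always all listed) in √10 steps, and nuclei were counted on 4× images. Relative viability is the ratio of nuclei in treated wells to nuclei in vehicle wells, taken as the median of duplicate plates.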

[2] = tested on: HCC-366
Summary of the method: as §1

[3] = tested on: LC-2-ad
Summary of the method: as §1

[4] = tested on: HCC-827
Summary of the method: as §1

[5] = tested on: NCI-H1993
Summary of the method: as §1

[6] = tested on: NCI-H1975
Summary of the method: as §1

[7] = tested on: LU99A
Summary of the method: as §1

[8] = tested on: NCI-H596
Summary of the method: as §1

[9] = tested on: COR-L23
Summary of the method: as §1

[10] = tested on: NCI-H1755
Summary of the method: as §1

[11] = tested on: COR-L 105
Summary of the method: as §1

[12] = tested on: LXF-289
Summary of the method: as §1

## O=C(O)CCCCC(CCSCc1ccccc1)SCc1ccccc1 (configuration not stated) [CPI-613] + CS(=O)(=O)CCNCc1ccc(-c2ccc3ncnc(Nc4ccc(OCc5cccc(F)c5)c(Cl)c4)c3c2)o1 [Lapatinib] (partner 2 µM)
[1]; first compound 158.11 µM
  relative viability: 0.502
[1]; first compound 500 µM
  relative viability: 0.624
[2]; first compound 5 µM
  relative viability: 0.959
[2]; first compound 15.81 µM
  relative viability: 1.02
[2]; first compound 50 µM
  relative viability: 1
[2]; first compound 158.11 µM
  relative viability: 0.284
[2]; first compound 500 µM
  relative viability: 0.0085
[3]; first compound 5 µM
  relative viability: 0.746
[3]; first compound 15.81 µM
  relative viability: 0.859
[3]; first compound 50 µM
  relative viability: 0.868
[3]; first compound 158.11 µM
  relative viability: 0.255
[3]; first compound 500 µM
  relative viability: 0.0059
[4]; first compound 5 µM
  relative viability: 0.212
[4]; first compound 15.81 µM
  relative viability: 0.181
[4]; first compound 50 µM
  relative viability: 0.196
[4]; first compound 158.11 µM
  relative viability: 0.173
[4]; first compound 500 µM
  relative viability: 0.0605
[5]; first compound 5 µM
  relative viability: 0.777
[5]; first compound 15.81 µM
  relative viability: 0.706
[5]; first compound 50 µM
  relative viability: 0.774
[5]; first compound 158.11 µM
  relative viability: 0.567
[5]; first compound 500 µM
  relative viability: 0.41
[6]; first compound 5 µM
  relative viability: 0.89
[6]; first compound 15.81 µM
  relative viability: 0.832
[6]; first compound 50 µM
  relative viability: 0.821
[6]; first compound 158.11 µM
  relative viability: 0.824
[6]; first compound 500 µM
  relative viability: 0.0608
[7]; first compound 5 µM
  relative viability: 0.937
[7]; first compound 15.81 µM
  relative viability: 0.918
[7]; first compound 50 µM
  relative viability: 0.887
[7]; first compound 158.11 µM
  relative viability: 0.608
[7]; first compound 500 µM
  relative viability: 0.0424
[8]; first compound 5 µM
  relative viability: 1.01
[8]; first compound 15.81 µM
  relative viability: 1.05
[8]; first compound 50 µM
  relative viability: 1.02
[8]; first compound 158.11 µM
  relative viability: 1.05
[8]; first compound 500 µM
  relative viability: 0.0407
[9]; first compound 5 µM
  relative viability: 0.826
[9]; first compound 15.81 µM
  relative viability: 0.969
[9]; first compound 50 µM
  relative viability: 0.746
[9]; first compound 158.11 µM
  relative viability: 0.459
[9]; first compound 500 µM
  relative viability: 0.0098
[10]; first compound 5 µM
  relative viability: 0.997
[10]; first compound 15.81 µM
  relative viability: 0.996
[10]; first compound 50 µM
  relative viability: 1
[10]; first compound 158.11 µM
  relative viability: 0.969
[10]; first compound 500 µM
  relative viability: 0.232
[11]; first compound 5 µM
  relative viability: 0.364
[11]; first compound 15.81 µM
  relative viability: 0.323
[11]; first compound 50 µM
  relative viability: 0.377
[11]; first compound 158.11 µM
  relative viability: 0.291
[11]; first compound 500 µM
  relative viability: 0.263
[12]; first compound 5 µM
  relative viability: 0.842
[12]; first compound 15.81 µM
  relative viability: 0.881
[12]; first compound 50 µM
  relative viability: 0.835
[12]; first compound 158.11 µM
  relative viability: 0.585
[12]; first compound 500 µM
  relative viability: 0.0115
